Consider six molecules from patent US10617117B2, “Insect repellent composition and method of use” (NEO-INNOVA HEALTHCARE LIMITED, priority 2015, dated 2020).

SMILES strings stand for the structures. “Also recorded” adds a separate entry of the source.

The test system of series [1] is Aedes aegypti female mosquitoes. The series is described as follows: laboratory arm or hand in cage test (complete protection time). Format: in vivo. Particulars: Citriodiol as active substance, with vanillin, FIG. 14. On the procedure: Complete protection times are calculated as the number of minutes (or hours) elapsed between the time of repellent application and the first mosquito landing or probing. Complete Protection Times are reported herein as a median value of protection time given by each individual. Complete Protection Times are abbreviated herein as CPTs. […]
Complete protection time provided by each product was evaluated by following hand in cage studies as per a modified WHO protocol (HTM/NTD/WHOPES/2009.4).
Typically, the test consisted of inserting a repellent treated arm into a cage measuring 35 cm on each side, containing laboratory bred 200 numbers of non-blood fed Aedes Aegypti mosquitoes which were approximately 5-7 days old and the elapsed time to first landing or probing (which refers to an insect landing and penetrating the skin with its mouthparts, without ingesting blood) was determined. […]
Readiness of the mosquitoes to bite (biting pressure) was checked by inserting un-treated arm for 1 minute prior to inserting treated arm at each 30-minute interval. […] Complete protection time was calculated as the number of minutes (or hours) elapsed between the time of repellent application and the first mosquito landing or probing. […]

The nature of series [2]: Stability tests, accelerated storage 54° C. for 14 days (discoloration of vanillin). The class given is physicochemical. Particulars: room temperature and 54° C.; antioxidant added to vanillin-containing composition. On the procedure:
[…] The front line accelerated conditions recommend testing at 54° C. for 14 days (see BPR 528/2012: Volume I. Part A, Chapter III: Requirements for Biocide Products, Version 1.1 Nov. 2014).

A further series concerns Aedes Aegypti. Particulars: at circa 50% concentrations, FIG. 1; cited from earlier work.
For series [3] the following is noted: human skin; cited from earlier work.
In series [4] the test system is Culex spp., Aedes spp., Mansonia spp., and Verrallina spp. Particulars: compared with Anopheles spp.; cited from earlier work.
Series [5] concerns biting flies, such as a mosquito. Particulars: in vivo; cited from earlier work.

On to `O=S([O-])O.[Na+]` [sodium bisulphite], for which, in series [1], the “effect of addition of 1% antioxidant on efficacy (CPTs)” value is reported as “still further significant improvement in efficacy”. In addition, the “photosensitisation and secondary oxidation (discoloration) of vanillin” value in series [2] was “Lack of photosensitisation and secondary oxidation of vanillin; also recorded: one significant exception”.

As to `CCN(CC)C(=O)c1cccc(C)c1` [DEET, N,N-Diethyl-3-methylbenzamide], in the series with Aedes Aegypti, the “CPT at which activity plateaus” value is 5 to 6 h. In addition, the absorption through skin entry in series [3] is listed as “absorbed through human skin”. Also, the “protection against different mosquito genera” value in series [4] is reported as “longer against these genera than provided against Anopheles spp”.

On to `CCCCN(CCC(=O)OCC)C(C)=O` [IR3535, ethyl butylacetylaminopropionate], for which the “CPTs compared with DEET” value in series [5] is given as “neither ethyl butylacetylaminopropionate (IR3535) nor Picaridin (KBR 3023) has demonstrated meaningful superiority to DEET”.

In the case of `CCCOC(=O)c1cc(O)c(O)c(O)c1` [propyl gallate], the “photosensitisation and secondary oxidation (discoloration) of vanillin” value in series [2] is recorded as “negative”.

Consider `CCC(C)OC(=O)N1CCCCC1CCO` (stereo not drawn) [Picaridin], for which the “CPTs compared with DEET” value in series [5] is given as “neither ethyl butylacetylaminopropionate (IR3535) nor Picaridin (KBR 3023) has demonstrated meaningful superiority to DEET”.

As for `COc1ccc(O)c(C(C)(C)C)c1` [BHA], the “photosensitisation and secondary oxidation (discoloration) of vanillin” value in series [2] is “negative”.
